Laboratory results from patent publication US20080089860A1, “Therapeutic compositions and methods useful in treating cancer” (priority 2006, published 2008).

What was measured:
SHP-1 = target: T1, SHP-1 (Mus musculus, UniProt P29351); assay: In vitro PTPase assay, GST/SHP-1; type: biochemical; conditions: for inhibitory activity against SHP-1: 3-4 μg/ml or 10-100 μg/ml
T1 construct: made in house
Description: In vitro PTPase activities were measured using the commercial protein tyrosine phosphatase assay kit (Upstate Biotechnology, Inc. (“UBI”)) following established procedure known to one of skill in the art. […] Briefly, 0.01 µg of GST/PTPase fusion proteins was incubated in 50 µl of Tris buffer (10 mM Tris, pH 7.4) containing different concentrations of inhibitors or chemicals (0-1,000 µg/ml) at 22° […] 100 µl of Malachite Green solution was added and incubated for 5 minutes, and the absorbance at 660 nm was measured after 5 minutes.
To assess the reversibility of inhibition of SHP-1 by PTPase inhibitors, GST/SHP-1 fusion protein bound on glutathione beads were pre-incubated in cold Tris buffer or Tris buffer containing the PTPase inhibitors at 4° C. for 30 minutes. The beads were then either subjected to in vitro PTPase assays or washed 3 times in Tris buffer then subjected to in vitro PTPase assays.
Briefly, individual PTPases (0.1 µg/reaction) in 50 µL of PTPase buffer (50 mM Tris, pH 7.4) were incubated at 22° C. for 10 minutes or as indicated in the absence or presence of inhibitory compounds. Substrates (0.2 mM phosphotyrosine peptide) were then added and allowed to react at 22° C. for 18 hrs. PTPase activity of individual reactions was measured by adding 100 µL of malachite green solution (UBI) and then quantifying the amounts of free phosphate cleaved by the PTPase from the peptide substrate by spectrometry (OD660 nm). […] Relative PTPase activities were calculated based on the formula: (PTPase activity in the presence of an inhibitory compound/PTPase activity in the absence of the compound)× 100%. To assess the reversibility of PTPase inhibition, GST fusion proteins of the PTPases bound on glutathione beads (Pharmacia) were pre-incubated with cold Tris buffer (50 mM Tris, pH 7.0) or Tris buffer containing the inhibitor at 4° C. for 30 minutes. The beads were then washed three times in cold Tris buffer or not washed prior to subjecting to in vitro PTPase assays.

MKP1 = target: T2, MKP1 (Homo sapiens, UniProt P28562); assay: In vitro PTPase assay, GST/MKP1; type: biochemical; conditions: for inhibition of MKP1: section VII comparison
T2 construct: made in house; host or cells: E. coli DH5a
T2 sequence (P28562 13-367 limits assumed): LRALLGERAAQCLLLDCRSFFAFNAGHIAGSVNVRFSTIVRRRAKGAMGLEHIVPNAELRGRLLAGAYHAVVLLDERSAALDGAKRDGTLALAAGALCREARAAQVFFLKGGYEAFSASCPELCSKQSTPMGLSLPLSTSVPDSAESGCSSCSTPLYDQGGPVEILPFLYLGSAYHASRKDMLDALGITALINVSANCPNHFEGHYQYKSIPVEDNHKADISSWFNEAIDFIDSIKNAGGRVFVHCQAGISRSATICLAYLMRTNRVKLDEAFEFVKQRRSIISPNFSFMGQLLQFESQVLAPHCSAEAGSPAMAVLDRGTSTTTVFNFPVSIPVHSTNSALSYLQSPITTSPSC
Description: In vitro PTPase activities were measured using the commercial protein tyrosine phosphatase assay kit (Upstate Biotechnology, Inc. (“UBI”)) following established procedure known to one of skill in the art. This assay measures the in vitro dephosphorylation of a synthetic phosphotyrosine peptide of the sequence Arg-Arg-Leu-Ile-Glu-Asp-Ala-Gle-T- -yr-Ala-Ala-Arg-Gly, wherein the tyrosine is phosphorylated (SEQ ID NO: 3). Briefly, 0.01 µg of GST/PTPase fusion proteins was incubated in 50 µl of Tris buffer (10 mM Tris, pH 7.4) containing different concentrations of inhibitors or chemicals (0-1,000 µg/ml) at 22° C. for 10 minutes, followed by addition of 0.2 mM of the phosphotyrosine peptide and incubation at 22° C. for 18 hours. 100 µl of Malachite Green solution was added and incubated for 5 minutes, and the absorbance at 660 nm was measured after 5 minutes.
In vitro PTPase assays were used to determine the effects of levamisole (Sigma), pentamidine (American Pharmaceutical Partners, Inc.), and ketoconazole (Sigma) on recombinant PTPases, following established procedures (Pathak et al., J. Imumol. 167, 3391 (2001); Pathak et al., Leukemia 16, 2285 (2002), Yi et al., J. Immunol. 169, 5978 (2002)) using a synthetic phosphotyrosine peptide or DiFMUP as the substrate as detailed above in section I.A.2.

WM9 cells = assay: WM9 melanoma cell growth, MTT assay; type: cell-based, human; conditions: for effect on IFN-induced growth inhibition of WM9 cells: pentamidine 0.625-1.25 μg/ml, ketoconazole 40 μg/ml, sodium stibogluconate 12.5-50 μg/ml
Description: For cell proliferation assays, cells were grown in 10% FCS culture medium containing various amounts of IFNs and/or sodium stibogluconate in 96 well plates and cultured at 37° C. for 3 or 6 days as indicated. The numbers of viable cells in proliferation assays were determined by MTT assays as described in Phatak et al., J. Immunol. 167, 3391 (2001).
Dose response curves were generated for each drug alone, and also the combinations. Median effect plots were generated for IFNs alone, sodium stibogluconate alone, and the combination. The combination index (CI) was determined and plotted vs. fraction affected (FA). Data were analyzed in both modes, mutually exclusive and mutually nonexclusive. The interaction between two mutually nonexclusive drugs is described by the Equation CI=D1/Dx1+D2/Dx2+D1D2/Dx1Dx2, where Dx1 and Dx2 are the doses of drug 1 and drug 2 that are required to inhibit growth x %. […] When CI<1, drugs are synergistic, when CI=1, drugs are additive, and when CI>1, drugs are antagonistic.
Renca (Murphy, G. P., and W. J. Hrushesky. 1973. A murine renal cell carcinoma. J Natl Cancer Inst 50:1013), Jurkat (Gillis, S., and J. Watson. 1980. Biochemical and biological characterization of lymphocyte regulatory molecules. V. Identification of an interleukin 2-producing human leukemia T cell line. J Exp Med 152:1709) and WM9 (Forsberg, K., 1. Valyi-Nagy, C. H. Heldin, M. Herlyn, and B. Westermark. 1993. Platelet-derived growth factor (PDGF) in oncogenesis: development of a vascular connective tissue stroma in xenotransplanted human melanoma producing PDGF-BB. Proc Natl Acad Sci USA 90:393) cell lines were obtained from a colleague at the Cleveland Clinic Foundation (CCF) and cultured in RPMI 1640 medium supplemented with 10% fetal calf serum (FCS). […] SSG has been described previously (Yi, T., M. K. Pathak, D. J. Lindner, M. E. Ketterer, C. Farver, and E. C. Borden. 2002. Anticancer activity of sodium stibogluconate in synergy with IFNs. J Immunol 169:5978).

T1 sequence (P29351 whole entry): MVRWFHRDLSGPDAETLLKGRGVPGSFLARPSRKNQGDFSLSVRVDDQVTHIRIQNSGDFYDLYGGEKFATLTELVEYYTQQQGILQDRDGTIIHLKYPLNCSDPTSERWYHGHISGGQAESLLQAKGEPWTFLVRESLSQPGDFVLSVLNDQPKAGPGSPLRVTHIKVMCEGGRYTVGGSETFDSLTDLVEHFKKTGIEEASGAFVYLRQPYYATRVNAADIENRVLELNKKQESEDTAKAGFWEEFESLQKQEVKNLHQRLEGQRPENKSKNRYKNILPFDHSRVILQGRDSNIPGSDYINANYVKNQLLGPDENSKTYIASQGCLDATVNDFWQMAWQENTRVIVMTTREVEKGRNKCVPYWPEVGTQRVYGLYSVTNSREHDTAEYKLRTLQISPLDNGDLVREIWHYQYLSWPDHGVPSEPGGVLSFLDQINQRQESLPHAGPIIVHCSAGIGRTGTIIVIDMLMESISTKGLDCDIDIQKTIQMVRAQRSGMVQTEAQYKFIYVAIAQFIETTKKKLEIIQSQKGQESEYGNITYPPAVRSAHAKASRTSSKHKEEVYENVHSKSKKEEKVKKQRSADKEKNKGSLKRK

Structure (SMILES)	inhibitory activity against SHP-1 (SHP-1)	inhibition of MKP1 (MKP1)	activity against WM9 cells (WM9 cells; 0.625-20 μg/ml, single agent or with IFN-alpha)	inhibition at 40 µg/mL (WM9 cells; Homo sapiens, WM9, 40 μg/ml, single agent) [%]	effect on IFN-induced growth inhibition of WM9 cells (WM9 cells)	growth inhibition of WM9 cells (WM9 cells; pentamidine 2.5-5 μg/ml, single agent, 6 days)	activity against recombinant SHP-1 (SHP-1; HPLC fractions, parental mixture at Sb 10 μg/ml)	dephosphorylation of pNPP by these PTPases (SHP-1; pNPP substrate, SHP-1, SHP-2 and PTP1B)	inhibition of GST/SHP-1 after washing (reversibility) (SHP-1; pre-incubated with inhibitor, beads washed)	inhibitory activity against MKP1 (MKP1)	growth of WM9 melanoma cells (WM9 cells; SSG 6.25-200 μg/ml, 6 days)	WM9 cells in day 6 culture (WM9 cells; single agent, 50 μg/ml and 100 μg/ml)
CC(=O)N1CCN(c2ccc(OCC3COC(Cn4ccnc4)(c4ccc(Cl)cc4Cl)O3)cc2)CC1 (centres unmarked) [ketoconazole]	no obvious inhibitory activity	substantial inhibition	no apparent activity	67	minor augmenting effect	–	–	–	–	–	–	–
N=C(N)c1ccc(OCCCCCOc2ccc(C(=N)N)cc2)cc1 [pentamidine]	no obvious inhibitory activity	substantial inhibition	–	–	augmented IFN-alpha-induced growth inhibition	86-97%	–	–	–	–	–	–
O.O.O.O.O.O.O.O.O.O=C([O-])[C@@H]1[O][Sb]2([O-])([O][Sb]34([OH])[O][C@H]([C@H](O)CO)[C@H]([O]3)[C@H](C(=O)[O-])[O]4)[O][C@H]([C@H](O)CO)[C@@H]1[O]2.[Na+].[Na+].[Na+] [sodium stibogluconate]	–	no obvious effects	–	–	greatly enhanced	–	inactivated SHP-1	similarly inhibited	not affected by washing	no obvious inhibitory activity	inhibited by SSG in a dose-dependent manner	killed all cells
